Source: US8735414B2 (priority 2009, dated 2014)

Assays:
[1] = system: bicistronic HCV replicon (replicon RNA, GenBank Accession No. AJ242654); test: HCV Replicon Assay; type: cell-based; details: Hepatitis C virus, 72 h, read-out: Replicon IC50

| SMILES | IC50 [1] | melting point |
| --- | --- | --- |
| Cc1cc2c(C#N)c(-c3ccc(S(=O)(=O)NC(CF)CF)cn3)n(C3CCC3)c2cc1Cl [compound 505, 6-(6-chloro-3-cyano-1-cyclobutyl-5-methyl-1H-indol-2-yl)-N-(1,3-difluoropropan-2-yl)pyridine-3-sulfonamide] | < 500 nM | 195 to 196 °C |
| N#Cc1c(-c2ccc(S(=O)(=O)NC(CF)CF)cn2)n(C2CCC2)c2ccc(OC(F)F)cc12 [compound 32, 6-[3-cyano-1-cyclobutyl-5-(difluoromethoxy)-1H-indol-2-yl]-N-(1,3-difluoropropan-2-yl)pyridine-3-sulfonamide] | < 500 nM | 166 to 172 °C |
| Cc1ccc2c(c1)c(C#N)c(-c1ccc(S(=O)(=O)NC(CF)CF)cn1)n2C1CCCC1 [compound 158, 6-(3-cyano-1-cyclopentyl-5-methyl-1H-indol-2-yl)-N-(1,3-difluoropropan-2-yl)pyridine-3-sulfonamide] | < 500 nM | 168 to 173 °C |
| N#Cc1c(-c2ccc(S(=O)(=O)NC(CF)CF)cn2)n(C2CCCC2)c2ccc(F)cc12 [compound 38, 6-(3-cyano-1-cyclopentyl-5-fluoro-1H-indol-2-yl)-N-(1,3-difluoropropan-2-yl)pyridine-3-sulfonamide] | < 500 nM | 171 to 172 °C |
| Cc1cc2c(cc1F)c(C(=O)O)c(-c1ccc(S(=O)(=O)NC(C)(C)C(F)(F)F)cn1)n2C1CCCC1 [compound 765, 1-cyclopentyl-5-fluoro-6-methyl-2-{5-[(1,1,1-trifluoro-2-methylpropan-2-yl)sulfamoyl]pyridin-2-yl}-1H-indole-3-carboxylic acid] | < 500 nM | 233 to 234 °C |
| CC(C)(C)NS(=O)(=O)c1ccc(-c2c(C#N)c3cc(F)c(O)cc3n2C2CCC2)nc1 [compound 719, N-tert-butyl-6-(3-cyano-1-cyclobutyl-5-fluoro-6-hydroxy-1H-indol-2-yl)pyridine-3-sulfonamide] | 500 to 2000 nM | 242 to 245 °C |
| COc1ccnc(-n2c(-c3ccc(S(=O)(=O)N[C@@H](C)C(F)(F)F)cn3)c(C(N)=O)c3cc(F)c(C)cc32)n1 [compound 906, 5-fluoro-1-(4-methoxypyrimidin-2-yl)-6-methyl-2-(5-{[(2S)-1,1,1-trifluoropropan-2-yl]sulfamoyl}pyridin-2-yl)-1H-indole-3-carboxamide] | < 500 nM | 167 to 174 °C |
| C[C@@H](NS(=O)(=O)c1ccc(-c2c(C#N)c3ccc(F)cc3n2C2CCC2)nc1)C(F)(F)F [compound 215, 6-(3-cyano-1-cyclobutyl-6-fluoro-1H-indol-2-yl)-N-[(2R)-1,1,1-trifluoropropan-2-yl]pyridine-3-sulfonamide] | 500 to 2000 nM | 178 to 180 °C |
| Cc1ccc2c(c1)c(C#N)c(-c1ncc(S(=O)(=O)N[C@@H](C)C(F)(F)F)cn1)n2C(C)C [compound 566, 2-[3-cyano-5-methyl-1-(propan-2-yl)-1H-indol-2-yl]-N-[(2S)-1,1,1-trifluoropropan-2-yl]pyrimidine-5-sulfonamide] | 500 to 2000 nM | 195 to 198 °C |
| N#Cc1c(-c2ncc(S(=O)(=O)NC(CF)CF)cn2)n(C2CCC2)c2cc(C3CCC3)ccc12 [compound 264, 2-(3-cyano-1,6-dicyclobutyl-1H-indol-2-yl)-N-(1,3-difluoropropan-2-yl)pyrimidine-5-sulfonamide] | 500 to 2000 nM | 184 to 188 °C |
| C[C@H](NS(=O)(=O)c1ccc(-c2c(C#N)c3cc(F)ccc3n2-c2ccc(C(F)(F)F)cn2)nc1)C(F)(F)F [compound 724, 6-{3-cyano-5-fluoro-1-[5-(trifluoromethyl)pyridin-2-yl]-1H-indol-2-yl}-N-[(2S)-1,1,1-trifluoropropan-2-yl]pyridine-3-sulfonamide] | 500 to 2000 nM | 216 to 218 °C |
| CCc1cc2c(cc1F)c(C(N)=O)c(-c1cnc(NS(=O)(=O)C(C)(C)C)nc1)n2C1CCCCC1 [compound 1036, 2-{2-[(tert-butylsulfonyl)amino]pyrimidin-5-yl}-1-cyclohexyl-6-ethyl-5-fluoro-1H-indole-3-carboxamide] | 2000 to 5000 nM | > 300 °C |
| Cc1ccc(-n2c(-c3ccc(S(=O)(=O)N[C@@H](C)C(F)(F)F)cn3)c(C#N)c3cc(F)c(C)cc32)nc1 [compound 885, 6-[3-cyano-5-fluoro-6-methyl-1-(5-methylpyridin-2-yl)-1H-indol-2-yl]-N-[(2S)-1,1,1-trifluoropropan-2-yl]pyridine-3-sulfonamide] | < 500 nM | 250 to 254 °C |
| Cc1cc(-c2c(C#N)c3cc(F)ccc3n2-c2ncccn2)ncc1S(=O)(=O)N[C@@H](C)C(F)(F)F [compound 848, 6-[3-cyano-5-fluoro-1-(pyrimidin-2-yl)-1H-indol-2-yl]-4-methyl-N-[(2S)-1,1,1-trifluoropropan-2-yl]pyridine-3-sulfonamide] | < 500 nM | 199 to 204 °C |
| CCc1cc2c(cc1F)c(C#N)c(-c1cc(C)c(S(=O)(=O)N[C@H](C)C(F)(F)F)cn1)n2-c1ncccn1 [compound 890, 6-[3-cyano-6-ethyl-5-fluoro-1-(pyrimidin-2-yl)-1H-indol-2-yl]-4-methyl-N-[(2R)-1,1,1-trifluoropropan-2-yl]pyridine-3-sulfonamide] | < 500 nM | 231 to 236 °C |
| CC(C)n1c(-c2ncc(S(=O)(=O)N[C@@H](C)C3CC3)cn2)c(C#N)c2ccc(OC(F)F)cc21 [compound 207, 2-[3-cyano-6-(difluoromethoxy)-1-(propan-2-yl)-1H-indol-2-yl]-N-[(1S)-1-cyclopropylethyl]pyrimidine-5-sulfonamide] | 500 to 2000 nM | 169 to 170 °C |
| Cc1cc2c(cc1F)c(C#N)c(-c1ccc(S(=O)(=O)N[C@@H](C)C(F)(F)F)cn1)n2-c1ncccc1C [compound 739, 6-[3-cyano-5-fluoro-6-methyl-1-(3-methylpyridin-2-yl)-1H-indol-2-yl]-N-[(2S)-1,1,1-trifluoropropan-2-yl]pyridine-3-sulfonamide] | < 500 nM | 219 to 221 °C |
| C[C@@H](NS(=O)(=O)c1ccc(-c2c(C#N)c3ccc(OC(F)(F)F)cc3n2C2CCCCC2)nc1)C(F)(F)F [compound 304, 6-[3-cyano-1-cyclohexyl-6-(trifluoromethoxy)-1H-indol-2-yl]-N-[(2R)-1,1,1-trifluoropropan-2-yl]pyridine-3-sulfonamide] | < 500 nM | 181 to 183 °C |
| N#Cc1c(-c2ccc(S(=O)(=O)NC(CF)CF)cn2)n(C2CCC2)c2ccc(F)cc12 [compound 29, 6-(3-cyano-1-cyclobutyl-5-fluoro-1H-indol-2-yl)-N-(1,3-difluoropropan-2-yl)pyridine-3-sulfonamide] | < 500 nM | 206 to 208 °C |
| CCc1cc2c(cc1F)c(C#N)c(-c1ccc(S(=O)(=O)N[C@H](C)C(F)(F)F)cn1)n2C1CCCC1 [compound 632, 6-(3-cyano-1-cyclopentyl-6-ethyl-5-fluoro-1H-indol-2-yl)-N-[(2R)-1,1,1-trifluoropropan-2-yl]pyridine-3-sulfonamide] | < 500 nM | 205.5 to 206 °C |
| Cc1ccc2c(C#N)c(-c3ncc(S(=O)(=O)NC(CF)CF)cn3)n(C3CCCCC3)c2c1 [compound 241, 2-(3-cyano-1-cyclohexyl-6-methyl-1H-indol-2-yl)-N-(1,3-difluoropropan-2-yl)pyrimidine-5-sulfonamide] | < 500 nM | 225 to 230 °C |
| Cc1ccc2c(c1)c(C(N)=O)c(-c1ccc(S(=O)(=O)N[C@@H](C)C(F)(F)F)cn1)n2-c1cnccn1 [compound 916, 5-methyl-1-(pyrazin-2-yl)-2-(5-{[(2S)-1,1,1-trifluoropropan-2-yl]sulfamoyl}pyridin-2-yl)-1H-indole-3-carboxamide] | < 500 nM | 240 to 245 °C |
| CC(C)n1c(-c2ncc(S(=O)(=O)N[C@@H](C)C(F)(F)F)cn2)c(C#N)c2ccc(OC(F)F)cc21 [compound 399, 2-[3-cyano-6-(difluoromethoxy)-1-(propan-2-yl)-1H-indol-2-yl]-N-[(2S)-1,1,1-trifluoropropan-2-yl]pyrimidine-5-sulfonamide] | < 500 nM | 219 to 221 °C |
| C[C@H](NS(=O)(=O)c1ccc(-c2c(C#N)c3ccc(Cl)cc3n2C2CCC2)nc1)C(F)(F)F [compound 375, 6-(6-chloro-3-cyano-1-cyclobutyl-1H-indol-2-yl)-N-[(2S)-1,1,1-trifluoropropan-2-yl]pyridine-3-sulfonamide] | < 500 nM | 198 to 204 °C |
| CCc1cc2c(cc1F)c(C#N)c(-c1ccc(S(=O)(=O)NC(C)(C)C)cn1)n2-c1ncccn1 [compound 855, N-tert-butyl-6-[3-cyano-6-ethyl-5-fluoro-1-(pyrimidin-2-yl)-1H-indol-2-yl]pyridine-3-sulfonamide] | < 500 nM | 208 to 210 °C |
| CC(C)(NS(=O)(=O)c1ccc(-c2c(C#N)c3ccc(OC(F)F)cc3n2-c2ccccn2)nc1)C(F)(F)F [compound 583, 6-[3-cyano-6-(difluoromethoxy)-1-(pyridin-2-yl)-1H-indol-2-yl]-N-(1,1,1-trifluoro-2-methylpropan-2-yl)pyridine-3-sulfonamide] | < 500 nM | 170 to 173 °C |
| Cc1cc2c(cc1F)c(C#N)c(-c1ccc(S(=O)(=O)N[C@@H](C)C(F)(F)F)cn1)n2-c1sccc1C [compound 1000, 6-[3-cyano-5-fluoro-6-methyl-1-(3-methylthiophen-2-yl)-1H-indol-2-yl]-N-[(2S)-1,1,1-trifluoropropan-2-yl]pyridine-3-sulfonamide] | < 500 nM | 197 to 203.8 °C |
| Cc1cccc(-n2c(-c3ccc(S(=O)(=O)N[C@@H](C)C(F)(F)F)cn3)c(C#N)c3cc(F)c(C)cc32)n1 [compound 923, 6-[3-cyano-5-fluoro-6-methyl-1-(6-methylpyridin-2-yl)-1H-indol-2-yl]-N-[(2S)-1,1,1-trifluoropropan-2-yl]pyridine-3-sulfonamide] | < 500 nM | 219 to 225 °C |
